Assay results reported in the NIST ThermoML archive (doi:10.1021/acs.jced.8b01120).

Assay: xn = mol fraction of the nth substance listed
Conditions: 100 kPa, Liquid; for speed of sound: Single path-length method; for mass density: Vibrating tube method

CCCCN(CCCC)CCCC [tributylamine] + COC(C)=O
Conditions | mass density, 293.15 K [kg/m3] | mass density, 298.15 K [kg/m3] | mass density, 303.15 K [kg/m3] | mass density, 308.15 K [kg/m3] | mass density, 313.15 K [kg/m3] | speed of sound, 293.15 K [m/s] | speed of sound, 298.15 K [m/s] | speed of sound, 303.15 K [m/s] | speed of sound, 308.15 K [m/s] | speed of sound, 313.15 K [m/s]
x1 = 0.0501 | 913.106 | 906.572 | 900.184 | 893.938 | 887.487 | 1184.6 | 1160.4 | 1140 | 1113.4 | 1094.9
x1 = 0.1009 | 893.96 | 887.924 | 881.943 | 875.744 | 869.547 | 1188.9 | 1165.2 | 1144.5 | 1118 | 1099.6
x1 = 0.2003 | 864.36 | 858.987 | 853.583 | 848.346 | 842.744 | 1197.3 | 1174.1 | 1153.7 | 1128.1 | 1109.7
x1 = 0.2941 | 843.967 | 838.976 | 833.982 | 828.97 | 823.819 | 1205.6 | 1182.6 | 1161 | 1137.7 | 1118.6
x1 = 0.4009 | 826.428 | 821.765 | 817.081 | 812.409 | 807.525 | 1213.9 | 1191.9 | 1171.2 | 1148.1 | 1129.6
x1 = 0.5004 | 813.696 | 809.242 | 804.881 | 800.355 | 795.747 | 1222.5 | 1200.4 | 1180.6 | 1158.4 | 1138.9
x1 = 0.6008 | 803.345 | 799.107 | 794.831 | 790.504 | 786.225 | 1230.4 | 1209.5 | 1190.4 | 1167.9 | 1149.1
x1 = 0.7008 | 794.987 | 790.893 | 786.764 | 782.571 | 778.432 | 1239 | 1218.5 | 1198.7 | 1177.6 | 1159
x1 = 0.8004 | 788.147 | 784.162 | 780.197 | 776.154 | 772.052 | 1247.6 | 1227 | 1207.9 | 1187.8 | 1168.5
x1 = 0.9003 | 782.234 | 778.353 | 774.459 | 770.516 | 766.597 | 1255.7 | 1236.1 | 1217 | 1197.3 | 1177.8
x1 = 1 | 777.01 | 773.283 | 769.55 | 765.81 | 762.06 | 1264.2 | 1245.2 | 1226.2 | 1207.4 | 1188.8
